The structures appear in SMILES notation.

Sequence of Prostaglandin G/H synthase 1 (P23219 whole entry): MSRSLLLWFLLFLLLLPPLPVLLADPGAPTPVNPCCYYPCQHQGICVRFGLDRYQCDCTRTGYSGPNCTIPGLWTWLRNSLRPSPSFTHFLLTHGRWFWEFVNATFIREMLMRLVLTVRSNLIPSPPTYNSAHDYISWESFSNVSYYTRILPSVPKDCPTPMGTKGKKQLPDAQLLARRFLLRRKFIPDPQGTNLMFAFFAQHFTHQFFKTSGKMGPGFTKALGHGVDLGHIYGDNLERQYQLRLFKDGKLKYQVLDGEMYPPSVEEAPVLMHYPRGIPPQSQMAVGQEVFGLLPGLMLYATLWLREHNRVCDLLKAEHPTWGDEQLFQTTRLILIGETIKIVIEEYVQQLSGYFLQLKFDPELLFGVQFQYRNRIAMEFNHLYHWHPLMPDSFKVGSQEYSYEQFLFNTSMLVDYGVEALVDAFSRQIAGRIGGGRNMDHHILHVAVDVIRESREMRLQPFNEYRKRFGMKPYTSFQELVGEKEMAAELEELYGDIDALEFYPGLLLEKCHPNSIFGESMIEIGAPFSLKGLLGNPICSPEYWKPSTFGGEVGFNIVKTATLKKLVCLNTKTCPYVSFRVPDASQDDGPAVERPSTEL
Sequence of Melanocortin receptor 3 (P41968 whole entry): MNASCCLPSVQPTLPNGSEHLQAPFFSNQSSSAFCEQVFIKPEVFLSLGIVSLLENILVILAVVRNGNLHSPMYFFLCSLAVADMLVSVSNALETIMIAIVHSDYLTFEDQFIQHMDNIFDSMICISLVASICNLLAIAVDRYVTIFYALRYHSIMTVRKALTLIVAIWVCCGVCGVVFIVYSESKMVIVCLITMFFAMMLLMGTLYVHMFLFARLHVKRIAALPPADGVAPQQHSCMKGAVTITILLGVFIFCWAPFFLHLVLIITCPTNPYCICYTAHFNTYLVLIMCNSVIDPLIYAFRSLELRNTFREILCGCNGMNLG

The target of one assay is T1, Alpha-1D adrenergic receptor (Homo sapiens, UniProt P25100). Further: in other assays of this panel Not Active means under 50% inhibition at 10 µM.
T1 sequence (P25100 whole entry): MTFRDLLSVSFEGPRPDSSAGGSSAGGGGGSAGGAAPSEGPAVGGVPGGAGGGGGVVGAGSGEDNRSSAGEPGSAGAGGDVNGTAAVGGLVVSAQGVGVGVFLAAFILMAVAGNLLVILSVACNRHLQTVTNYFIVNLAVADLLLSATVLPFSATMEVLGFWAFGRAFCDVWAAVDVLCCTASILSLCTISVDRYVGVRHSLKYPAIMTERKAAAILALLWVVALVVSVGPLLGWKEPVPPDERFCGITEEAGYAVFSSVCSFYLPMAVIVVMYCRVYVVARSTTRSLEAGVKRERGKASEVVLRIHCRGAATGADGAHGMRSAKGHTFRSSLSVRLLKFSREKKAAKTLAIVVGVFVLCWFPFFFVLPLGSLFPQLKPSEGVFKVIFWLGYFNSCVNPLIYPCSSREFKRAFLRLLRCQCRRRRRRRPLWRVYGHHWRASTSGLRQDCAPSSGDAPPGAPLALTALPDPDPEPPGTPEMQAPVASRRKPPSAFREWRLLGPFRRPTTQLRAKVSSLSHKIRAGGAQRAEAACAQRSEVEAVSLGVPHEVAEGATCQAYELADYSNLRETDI
Test: not given
It is filed as cell membranes, HEK293, Membrane. As to conditions: hek293.
For `CCC1(c2ccccc2)C(=O)NCNC1=O` [PRIMIDONE], the IC50 entry is recorded as “Not Active”.

`CC=CC(=O)N(CC)c1ccccc1C`: the IC50 result is recorded as “Not Active”.

Turning to `O=C1NC(=O)C(c2ccccc2)(c2ccccc2)N1` [PHENYTOIN], the IC50 entry was “Not Active”.

System in another assay: not listed separately
In words: DRUGMATRIX: Calcium Channel Type L, Phenylalkylamine radioligand binding (ligand: [3H] (-)-Desmethoxyverapamil (D-888)). It is filed as cell membranes, Rattus norvegicus, Wistar, Brain, Membrane. As to conditions: Not Active = under 50% inhibition at 10 µM.
On to `CCC1(c2ccccc2)C(=O)NCNC1=O` [PRIMIDONE], for which the IC50 entry is listed as “Not Active” and the Ki result is reported as “Not Active”.

For `CC=CC(=O)N(CC)c1ccccc1C`, the IC50 result is “Not Active” and the Ki entry was “Not Active”.

For the compound `O=C1NC(=O)C(c2ccccc2)(c2ccccc2)N1` [PHENYTOIN], the IC50 result is “Not Active” and the Ki entry is listed as “Not Active”.

Another assay has as its target Prostaglandin G/H synthase 1 (Homo sapiens, UniProt P23219). As to the kind of experiment: biochemical. It is filed as tissue-based, Platelet. To be noted: platelet.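 Further: inhibition of COX-1 enzyme activity, with arachidonic acid supplied as substrate; in other assays of this panel Not Active means under 50% inhibition at 10 µM.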
As for `CCC1(c2ccccc2)C(=O)NCNC1=O` [PRIMIDONE], the IC50 result is listed as “Not Active”.

For `CC=CC(=O)N(CC)c1ccccc1C`, the IC50 result is listed as “Not Active”.

With `O=C1NC(=O)C(c2ccccc2)(c2ccccc2)N1` [PHENYTOIN], the IC50 result is on record as “Not Active”.

In a further assay the target is D(3) dopamine receptor (Homo sapiens, UniProt P35462). In words: DRUGMATRIX: Dopamine D3 radioligand binding (ligand: [3H] Spiperone). The class given is cell membranes, CHO, Membrane. To be noted: cho.
Sequence of D(3) dopamine receptor (P35462 whole entry): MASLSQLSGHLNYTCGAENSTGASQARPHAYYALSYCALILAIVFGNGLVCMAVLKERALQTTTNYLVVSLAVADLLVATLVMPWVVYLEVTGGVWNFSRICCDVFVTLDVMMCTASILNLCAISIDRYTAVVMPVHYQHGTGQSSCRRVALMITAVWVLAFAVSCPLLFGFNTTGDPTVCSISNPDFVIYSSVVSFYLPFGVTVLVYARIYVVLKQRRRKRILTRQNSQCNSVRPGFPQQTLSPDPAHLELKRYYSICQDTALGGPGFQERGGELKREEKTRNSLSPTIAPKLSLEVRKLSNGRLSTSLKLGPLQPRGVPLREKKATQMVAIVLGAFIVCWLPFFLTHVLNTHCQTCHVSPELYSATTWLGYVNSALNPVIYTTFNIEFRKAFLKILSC
Regarding `CCC1(c2ccccc2)C(=O)NCNC1=O` [PRIMIDONE], the IC50 entry is on record as “Not Active”.

Regarding `CC=CC(=O)N(CC)c1ccccc1C`, the IC50 result is “Not Active”.

As for `O=C1NC(=O)C(c2ccccc2)(c2ccccc2)N1` [PHENYTOIN], the IC50 entry is given as “Not Active”.

System in the next assay: not listed separately
In words: DRUGMATRIX: Glutamate, NMDA, Agonism radioligand binding (ligand: [3H] CGP-39653). As to conditions: Not Active = under 50% inhibition at 10 µM. The class given is cell membranes, Rattus norvegicus, Wistar, Cerebral cortex, Membrane.
In the case of `CCC1(c2ccccc2)C(=O)NCNC1=O` [PRIMIDONE], the IC50 result is listed as “Not Active” and the Ki entry was “Not Active”.

Consider `CC=CC(=O)N(CC)c1ccccc1C`, for which the IC50 entry is given as “Not Active” and the Ki entry was “Not Active”.

Turning to `O=C1NC(=O)C(c2ccccc2)(c2ccccc2)N1` [PHENYTOIN], the IC50 result is “Not Active” and the Ki result is listed as “Not Active”.

System in another assay: not listed separately
As to the kind of experiment: DRUGMATRIX: Glutamate, NMDA, Phencyclidine radioligand binding (ligand: [3H] TCP). As to conditions: Not Active = under 50% inhibition at 10 µM. The class given is cell membranes, Rattus norvegicus, Wistar, Cerebral cortex, Membrane.
In the case of `CCC1(c2ccccc2)C(=O)NCNC1=O` [PRIMIDONE], the IC50 result is listed as “Not Active” and the Ki entry is on record as “Not Active”.

Turning to `CC=CC(=O)N(CC)c1ccccc1C`, the IC50 result is given as “Not Active” and the Ki result is listed as “Not Active”.

`O=C1NC(=O)C(c2ccccc2)(c2ccccc2)N1` [PHENYTOIN]: the IC50 result is recorded as “Not Active” and the Ki result is recorded as “Not Active”.

Another assay deals with T2, 3-hydroxy-3-methylglutaryl-coenzyme A reductase (Homo sapiens, UniProt P04035).
T2 sequence (P04035 whole entry): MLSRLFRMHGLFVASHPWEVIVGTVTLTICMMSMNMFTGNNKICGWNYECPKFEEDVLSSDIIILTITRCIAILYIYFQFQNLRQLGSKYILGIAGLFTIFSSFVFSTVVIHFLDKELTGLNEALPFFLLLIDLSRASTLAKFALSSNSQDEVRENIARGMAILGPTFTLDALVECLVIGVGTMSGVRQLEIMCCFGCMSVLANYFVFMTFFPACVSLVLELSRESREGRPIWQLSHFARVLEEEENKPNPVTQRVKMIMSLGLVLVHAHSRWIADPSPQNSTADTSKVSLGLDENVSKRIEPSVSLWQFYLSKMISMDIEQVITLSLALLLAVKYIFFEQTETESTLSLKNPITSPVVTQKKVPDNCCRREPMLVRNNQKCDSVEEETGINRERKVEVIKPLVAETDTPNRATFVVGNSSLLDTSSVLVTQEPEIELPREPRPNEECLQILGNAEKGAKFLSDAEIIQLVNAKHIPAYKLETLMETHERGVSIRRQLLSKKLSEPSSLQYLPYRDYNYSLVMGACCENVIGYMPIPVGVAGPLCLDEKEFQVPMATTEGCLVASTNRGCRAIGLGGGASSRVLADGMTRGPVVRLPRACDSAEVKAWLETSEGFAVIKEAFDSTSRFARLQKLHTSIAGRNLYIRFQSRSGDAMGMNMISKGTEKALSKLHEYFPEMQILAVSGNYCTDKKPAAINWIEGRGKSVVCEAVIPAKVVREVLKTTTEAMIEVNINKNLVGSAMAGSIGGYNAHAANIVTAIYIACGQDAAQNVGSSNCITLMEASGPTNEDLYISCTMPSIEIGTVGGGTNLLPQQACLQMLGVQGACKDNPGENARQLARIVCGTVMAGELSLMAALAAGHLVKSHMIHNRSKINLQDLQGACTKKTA
Test: not given
Also noted: species or system Escherichia coli.
Settings: not given
Regarding `CCC1(c2ccccc2)C(=O)NCNC1=O` [PRIMIDONE], the IC50 result was “Not Active”.

With `CC=CC(=O)N(CC)c1ccccc1C`, the IC50 entry is on record as “Not Active”.

As for `O=C1NC(=O)C(c2ccccc2)(c2ccccc2)N1` [PHENYTOIN], the IC50 entry is “Not Active”.

Another assay addresses Melanocortin receptor 3 (Homo sapiens, UniProt P41968).
Test: not given
The class given is cell membranes, Membrane. To be noted: hek293.
Regarding `CCC1(c2ccccc2)C(=O)NCNC1=O` [PRIMIDONE], the IC50 entry was “Not Active”.

On to `CC=CC(=O)N(CC)c1ccccc1C`, for which the IC50 result is on record as “Not Active”.

With `O=C1NC(=O)C(c2ccccc2)(c2ccccc2)N1` [PHENYTOIN], the IC50 result is reported as “Not Active”.

System in the next assay: not listed separately
As to the kind of experiment: DRUGMATRIX: Phosphodiesterase PDE4 enzyme inhibition (substrate: [3H]cAMP + cAMP). As to conditions: u-937; Not Active = under 50% inhibition at 10 µM.
With `CCC1(c2ccccc2)C(=O)NCNC1=O` [PRIMIDONE], the IC50 entry is listed as “Not Active” and the Ki entry is on record as “Not Active”.

On to `CC=CC(=O)N(CC)c1ccccc1C`, for which the IC50 result is on record as “Not Active” and the Ki result was “Not Active”.

As for `O=C1NC(=O)C(c2ccccc2)(c2ccccc2)N1` [PHENYTOIN], the IC50 entry was “Not Active” and the Ki result is recorded as “Not Active”.

In the next assay the target is Platelet-activating factor receptor (Homo sapiens, UniProt P25105). As to the kind of experiment: biochemical. It is filed as tissue-based. To be noted: platelet. Further: in other assays of this panel Not Active means under 50% inhibition at 10 µM.
Sequence of Platelet-activating factor receptor (P25105 whole entry): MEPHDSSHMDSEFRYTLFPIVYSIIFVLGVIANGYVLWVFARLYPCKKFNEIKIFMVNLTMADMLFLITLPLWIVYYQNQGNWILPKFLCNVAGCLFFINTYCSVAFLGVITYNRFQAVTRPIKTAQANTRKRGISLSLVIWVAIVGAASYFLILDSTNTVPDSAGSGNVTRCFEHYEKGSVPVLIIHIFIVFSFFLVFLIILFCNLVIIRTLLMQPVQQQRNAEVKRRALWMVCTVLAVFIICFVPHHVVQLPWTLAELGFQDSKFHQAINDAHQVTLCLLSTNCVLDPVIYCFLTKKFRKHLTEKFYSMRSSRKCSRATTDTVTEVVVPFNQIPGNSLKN
For `CCC1(c2ccccc2)C(=O)NCNC1=O` [PRIMIDONE], the IC50 entry is on record as “Not Active”.

As to `CC=CC(=O)N(CC)c1ccccc1C`, the IC50 result is “Not Active”.

In the case of `O=C1NC(=O)C(c2ccccc2)(c2ccccc2)N1` [PHENYTOIN], the IC50 entry is listed as “Not Active”.

Another assay has as its target T3, Interstitial collagenase (Homo sapiens, UniProt P03956).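 Further: MMP-1 enzyme inhibition assay using a peptide substrate; in other assays of this panel Not Active means under 50% inhibition at 10 µM.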
T3 sequence (P03956 whole entry): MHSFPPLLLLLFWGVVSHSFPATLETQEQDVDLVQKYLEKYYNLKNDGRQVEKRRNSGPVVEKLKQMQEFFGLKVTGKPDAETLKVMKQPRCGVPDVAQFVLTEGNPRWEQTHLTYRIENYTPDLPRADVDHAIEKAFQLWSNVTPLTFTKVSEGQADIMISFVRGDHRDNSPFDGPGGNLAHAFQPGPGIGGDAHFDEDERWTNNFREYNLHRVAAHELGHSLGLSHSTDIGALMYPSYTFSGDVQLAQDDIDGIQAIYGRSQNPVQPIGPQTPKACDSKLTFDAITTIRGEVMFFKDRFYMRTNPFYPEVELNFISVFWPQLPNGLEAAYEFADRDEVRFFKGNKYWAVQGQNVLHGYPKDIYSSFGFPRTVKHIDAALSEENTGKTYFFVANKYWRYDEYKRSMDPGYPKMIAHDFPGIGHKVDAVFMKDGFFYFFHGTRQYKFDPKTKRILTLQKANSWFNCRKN
Test: not given
The class given is tissue-based, Rheumatoid synovial fibroblasts.
Settings: not given
For the compound `CCC1(c2ccccc2)C(=O)NCNC1=O` [PRIMIDONE], the IC50 result is recorded as “Not Active”.

Regarding `CC=CC(=O)N(CC)c1ccccc1C`, the IC50 entry is “Not Active”.

In the case of `O=C1NC(=O)C(c2ccccc2)(c2ccccc2)N1` [PHENYTOIN], the IC50 entry is given as “Not Active”.

The target of the next assay is Mitogen-activated protein kinase 1 (Homo sapiens, UniProt P28482). In words: DRUGMATRIX: Protein Serine/Threonine Kinase, ERK2 enzyme inhibition (substrate: Myelin Basic Protein). To be noted: Not Active = under 50% inhibition at 10 µM. Set-up: species or system Escherichia coli.
Sequence of Mitogen-activated protein kinase 1 (P28482 whole entry): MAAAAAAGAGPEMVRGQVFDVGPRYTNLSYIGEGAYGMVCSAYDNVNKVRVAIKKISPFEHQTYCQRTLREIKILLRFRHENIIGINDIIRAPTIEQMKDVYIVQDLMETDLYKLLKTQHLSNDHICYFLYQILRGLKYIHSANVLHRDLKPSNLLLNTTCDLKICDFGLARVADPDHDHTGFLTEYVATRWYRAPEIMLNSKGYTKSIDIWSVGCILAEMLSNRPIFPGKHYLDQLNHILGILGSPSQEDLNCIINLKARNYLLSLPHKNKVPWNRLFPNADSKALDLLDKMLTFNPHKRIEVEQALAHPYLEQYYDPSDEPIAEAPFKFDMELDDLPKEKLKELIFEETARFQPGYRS
On to `CCC1(c2ccccc2)C(=O)NCNC1=O` [PRIMIDONE], for which the IC50 entry was “Not Active”.

`CC=CC(=O)N(CC)c1ccccc1C`: the IC50 entry is “Not Active”.

Take `O=C1NC(=O)C(c2ccccc2)(c2ccccc2)N1` [PHENYTOIN]: the IC50 entry was “Not Active”.

For another assay, the target named is T4, Adenosine receptor A1 (Homo sapiens, UniProt P30542).
T4 sequence (P30542 whole entry): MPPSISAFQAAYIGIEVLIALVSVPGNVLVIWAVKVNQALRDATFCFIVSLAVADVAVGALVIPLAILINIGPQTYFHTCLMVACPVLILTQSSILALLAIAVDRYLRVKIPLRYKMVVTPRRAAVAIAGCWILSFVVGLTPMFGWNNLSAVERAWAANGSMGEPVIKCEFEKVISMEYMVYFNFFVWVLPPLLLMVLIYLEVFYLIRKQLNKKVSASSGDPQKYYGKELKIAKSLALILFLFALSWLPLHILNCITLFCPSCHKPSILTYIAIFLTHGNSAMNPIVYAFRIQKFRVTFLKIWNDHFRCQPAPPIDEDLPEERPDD
Test: not given
As to conditions: cho. It is filed as cell membranes, CHO, Membrane.
Turning to `CCC1(c2ccccc2)C(=O)NCNC1=O` [PRIMIDONE], the IC50 entry is listed as “Not Active”.

Regarding `CC=CC(=O)N(CC)c1ccccc1C`, the IC50 entry is “Not Active”.

For the compound `O=C1NC(=O)C(c2ccccc2)(c2ccccc2)N1` [PHENYTOIN], the IC50 entry is given as “Not Active”.

(Values after ChEMBL document CHEMBL1909046, “DrugMatrix in vitro pharmacology data”.)
